The compounds below were run against T1, NLRP3 inflammasome (Mus musculus, UniProt Q8R4B8) (assay: Inhibition of NLRP3-mediated IL-1β release in BMDMs (LPS + Bz-ATP), ELISA). Conditions: BMDM; BMDMs from WT mice, LPS + BzATP, compound at 1 μM; read-out: Inhibitory rate of IL-1β release.
T1 construct: bone marrow-derived macrophages (BMDMs) from wild type (WT) mice first primed with 1 μg/ml lipopolysaccharide (LPS); endogenous in cells; host or cells: primary BMDMs from wild type mice
Format: cell-based

T1 sequence (Q8R4B8 whole entry): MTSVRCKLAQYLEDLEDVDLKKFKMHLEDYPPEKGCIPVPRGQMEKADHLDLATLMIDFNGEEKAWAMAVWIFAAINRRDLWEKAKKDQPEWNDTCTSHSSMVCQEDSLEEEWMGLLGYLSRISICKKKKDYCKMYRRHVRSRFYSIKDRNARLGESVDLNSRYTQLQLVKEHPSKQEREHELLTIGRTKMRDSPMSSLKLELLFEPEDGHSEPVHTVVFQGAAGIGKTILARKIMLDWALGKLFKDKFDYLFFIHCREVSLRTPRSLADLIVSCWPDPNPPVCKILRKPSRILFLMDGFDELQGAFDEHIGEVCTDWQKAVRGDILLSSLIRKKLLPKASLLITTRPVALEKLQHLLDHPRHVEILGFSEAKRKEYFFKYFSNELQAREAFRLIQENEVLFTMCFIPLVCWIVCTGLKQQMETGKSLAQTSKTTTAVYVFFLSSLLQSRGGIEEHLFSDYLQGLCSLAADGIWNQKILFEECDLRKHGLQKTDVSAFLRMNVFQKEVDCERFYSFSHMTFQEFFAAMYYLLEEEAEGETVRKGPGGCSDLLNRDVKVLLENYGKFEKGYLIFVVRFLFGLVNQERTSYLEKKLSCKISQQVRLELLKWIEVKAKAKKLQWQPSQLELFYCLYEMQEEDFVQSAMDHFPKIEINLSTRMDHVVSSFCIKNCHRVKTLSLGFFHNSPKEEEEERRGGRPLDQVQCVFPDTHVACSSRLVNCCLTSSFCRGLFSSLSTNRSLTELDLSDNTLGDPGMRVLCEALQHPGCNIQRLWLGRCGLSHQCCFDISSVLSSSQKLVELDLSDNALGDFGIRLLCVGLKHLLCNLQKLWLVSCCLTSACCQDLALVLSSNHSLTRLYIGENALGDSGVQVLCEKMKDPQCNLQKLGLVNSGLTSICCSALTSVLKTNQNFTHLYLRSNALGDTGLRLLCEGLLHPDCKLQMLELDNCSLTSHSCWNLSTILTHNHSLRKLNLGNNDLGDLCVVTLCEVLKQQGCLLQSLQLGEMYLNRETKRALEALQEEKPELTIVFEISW

Row | inhibition at 1 µM [%] | SMILES
1 | 25.4 | Nc1ccc(S(=O)(=O)N2CCCCC2C(=O)Nc2c3c(cc4c2CCC4)CCC3)cc1 (stereo not drawn) [Compound 4b of Formula (IV), 1-((4-aminophenyl)sulfonyl)-N-(1,2,3,5,6,7-hexahydro-s-indacen-4-yl)piperidine-2-carboxamide]
2 | 25.7 | O=C(Nc1c2c(cc3c1CCC3)CCC2)C1CCCN1S(=O)(=O)c1ccc([N+](=O)[O-])cc1 (stereo not drawn) [Compound 3a of Formula (IV), N-(1,2,3,5,6,7-hexahydro-s-indacen-4-yl)-1-((4-nitrophenyl)sulfonyl)pyrrolidine-2-carboxamide]
3 | 19.8 | O=C(Nc1c2c(cc3c1CCC3)CCC2)[C@H](Cc1ccccc1)NS(=O)(=O)c1ccc([N+](=O)[O-])cc1 [Compound 6g of Formula (III), (S)—N-(1,2,3,5,6,7-hexahydro-s-indacen-4-yl)-2-((4-nitrophenyl)sulfonamido)-3-phenylpropanamide]
4 | 36.5 | O=C(CCNS(=O)(=O)c1ccc([N+](=O)[O-])cc1)Nc1c2c(cc3c1CCC3)CCC2 [Compound 6k of Formula (III), N-(1,2,3,5,6,7-hexahydro-s-indacen-4-yl)-3-((4-nitrophenyl)sulfonamido)propanamide]
5 | 41.6 | Nc1ccc(S(=O)(=O)N2CCCC2C(=O)Nc2c3c(cc4c2CCC4)CCC3)cc1 (stereo not drawn) [Compound 4a of Formula (IV), 1-((4-aminophenyl)sulfonyl)-N-(1,2,3,5,6,7-hexahydro-s-indacen-4-yl)pyrrolidine-2-carboxamide]
6 | 53.9 | CC(C)C[C@H](NS(=O)(=O)c1ccc([N+](=O)[O-])cc1)C(=O)Nc1c2c(cc3c1CCC3)CCC2 [Compound 6e of Formula (III), (S)—N-(1,2,3,5,6,7-hexahydro-s-indacen-4-yl)-4-methyl-2-((4-nitrophenyl)sulfonamido)pentanamide]
7 | 8.4 | CC(C)[C@@H](NS(=O)(=O)c1ccc(N)cc1)C(=O)Nc1c2c(cc3c1CCC3)CCC2 [Compound 7d of Formula (III), (R)-2-((4-aminophenyl)sulfonamido)-N-(1,2,3,5,6,7-hexahydro-s-indacen-4-yl)-3-methylbutanamide]
8 | 46.4 | Nc1ccc(S(=O)(=O)N[C@H](Cc2ccccc2)C(=O)Nc2c3c(cc4c2CCC4)CCC3)cc1 [Compound 7h of Formula (III), (R)-2-((4-aminophenyl)sulfonamido)-N-(1,2,3,5,6,7-hexahydro-s-indacen-4-yl)-3-phenylpropanamide]
9 | 28.4 | NCCCC[C@H](NS(=O)(=O)c1ccc(N)cc1)C(=O)Nc1c2c(cc3c1CCC3)CCC2 [Compound 11 of Formula (III), (S)-6-amino-2-((4-aminophenyl)sulfonamido)-N-(1,2,3,5,6,7-hexahydro-s-indacen-4-yl)hexanamide]
10 | 52.4 | O=C(Nc1c2c(cc3c1CCC3)CCC2)C1CCCCN1S(=O)(=O)c1ccc([N+](=O)[O-])cc1 (stereo not drawn) [Compound 3b of Formula (IV), N-(1,2,3,5,6,7-hexahydro-s-indacen-4-yl)-1-((4-nitrophenyl)sulfonyl)piperidine-2-carboxamide]
11 | 17.3 | C[C@H](NS(=O)(=O)c1ccc(N)cc1)C(=O)Nc1c2c(cc3c1CCC3)CCC2 [Compound 7b of Formula (III), (S)-2-((4-aminophenyl)sulfonamido)-N-(1,2,3,5,6,7-hexahydro-s-indacen-4-yl)propanamide]
12 | 50.2 | CC(C)[C@H](NS(=O)(=O)c1ccc(N)cc1)C(=O)Nc1c2c(cc3c1CCC3)CCC2 [Compound 7c of Formula (III), (S)-2-((4-aminophenyl)sulfonamido)-N-(1,2,3,5,6,7-hexahydro-s-indacen-4-yl)-3-methylbutanamide]
13 | 49.5 | O=C(Nc1c2c(cc3c1CCC3)CCC2)[C@@H](Cc1ccccc1)NS(=O)(=O)c1ccc([N+](=O)[O-])cc1 [Compound 6h of Formula (III), (R)—N-(1,2,3,5,6,7-hexahydro-s-indacen-4-yl)-2-((4-nitrophenyl)sulfonamido)-3-phenylpropanamide]
14 | 34.7 | O=C(Nc1c2c(cc3c1CCC3)CCC2)[C@H](Cc1ccc(O)cc1)NS(=O)(=O)c1ccc([N+](=O)[O-])cc1 [Compound 8 of Formula (III), (S)—N-(1,2,3,5,6,7-hexahydro-s-indacen-4-yl)-3-(4-hydroxyphenyl)-2-((4-nitrophenyl)sulfonamido)propanamide]
15 | 31.5 | CC(C)C[C@H](NS(=O)(=O)c1ccc(N)cc1)C(=O)Nc1c2c(cc3c1CCC3)CCC2 [Compound 7e of Formula (III), (S)-2-((4-aminophenyl)sulfonamido)-N-(1,2,3,5,6,7-hexahydro-s-indacen-4-yl)-4-methylpentanamide]
16 | 22.3 | Nc1ccc(S(=O)(=O)NCCC(=O)Nc2c3c(cc4c2CCC4)CCC3)cc1 [Compound 7k of Formula (III), 3-((4-aminophenyl)sulfonamido)-N-(1,2,3,5,6,7-hexahydro-s-indacen-4-yl)propanamide]
17 | 38 | Nc1ccc(S(=O)(=O)N[C@@H](Cc2ccccc2)C(=O)Nc2c3c(cc4c2CCC4)CCC3)cc1 [Compound 7g of Formula (III), (S)-2-((4-aminophenyl)sulfonamido)-N-(1,2,3,5,6,7-hexahydro-s-indacen-4-yl)-3-phenylpropanamide]
18 | 47.5 | NCCCC[C@H](NS(=O)(=O)c1ccc([N+](=O)[O-])cc1)C(=O)Nc1c2c(cc3c1CCC3)CCC2 [Compound 9 of Formula (III), (S)-6-amino-N-(1,2,3,5,6,7-hexahydro-s-indacen-4-yl)-2-((4-nitrophenyl)sulfonamido)hexanamide]
19 | 16.1 | Nc1ccc(S(=O)(=O)N[C@H](C(=O)Nc2c3c(cc4c2CCC4)CCC3)c2ccccc2)cc1 [Compound 7f of Formula (III), (S)-2-((4-aminophenyl)sulfonamido)-N-(1,2,3,5,6,7-hexahydro-s-indacen-4-yl)-2-phenylacetamide]
20 | 44.8 | O=C(Nc1c2c(cc3c1CCC3)CCC2)[C@@H](NS(=O)(=O)c1ccc([N+](=O)[O-])cc1)c1ccccc1 [Compound 6f of Formula (III), (S)—N-(1,2,3,5,6,7-hexahydro-s-indacen-4-yl)-2-((4-nitrophenyl)sulfonamido)-2-phenylacetamide]

The compounds below were run on THP-1 cells (assay: RealTime-Glo MT Cell Viability assay on THP-1 cells). Conditions: 1 μM, 48 hours.
Format: cell-based, human
Method: (§1) Cell viability was evaluated on THP-1 cells using realtime-Glo” MT Cell Viability Assay (Promega Italia, MI). Briefly, the cells were seeded in a 96 multiwell (10×10^4 cells/well), treated with the selected compound of Formula (II), and incubated for 48 hours. After treatment, the cells were incubated for 10 minutes in the incubator with the realtime-Glo” reagent following protocol. The luminescence was measured every 12 hours in the Glomax Multi Detection System Promega. The luminescence signal correlates with the number of metabolically active cells.
as §1, with “compound,” for “compound of Formula (II),”, “cells. The results represent the mean luminescence values (RLU)±SEM.” for “cells.”

Row | SMILES | Cytotoxicity / cell viability of THP-1 cells
21 | CC(C)[C@H](NS(=O)(=O)c1ccc([N+](=O)[O-])cc1)C(=O)Nc1c2c(cc3c1CCC3)CCC2 [Compound 6c of Formula (III), (S)—N-(1,2,3,5,6,7-hexahydro-s-indacen-4-yl)-3-methyl-2-((4-nitrophenyl)sulfonamido)butanamide] | no cytotoxicity
22 | Nc1ccc(S(=O)(=O)N[C@@H](Cc2ccc(O)cc2)C(=O)Nc2c3c(cc4c2CCC4)CCC3)cc1 [Compound 10 of Formula (III), (S)-2-((4-aminophenyl)sulfonamido)-N-(1,2,3,5,6,7-hexahydro-s-indacen-4-yl)-3-(4-hydroxyphenyl)propanamide] | no cytotoxicity

What follows are compounds tested against T2, NLRC4 inflammasome (Mus musculus, UniProt Q3UP24) (assay: NLRC4 inflammasome activation in LPS-primed BMDM transfected with flagellin of S. typhimurium (IL-1β ELISA)). Conditions: LPS 100 ng/ml 3 hours, compound 1 μm 30 minutes, flagellin 100 ng/ml 2 hours.
T2 construct: endogenous in cells; host or cells: mouse BMDM, LPS-primed, transfected with S. typhimurium flagellin
Format: cell-based
Method: The selectivity of compound 4 as an inhibitor of NLRP3 was then evaluated with respect to NLRC4 and absent in melanoma 2 (AIM2) inflammasomes. For activation of NLRC4 inflammasome, BMDM were treated with LPS (100 ng/ml) for 3 hours. Subsequently, the culture medium was removed and replaced with a serum-free medium containing compound 4 (1 μm for 30 minutes), finally the cells were transfected with flagellin (100 ng/ml) by S. typhimurium for 2 hours. The supernatant was tested by ELISA. […] The effect of the same compounds was examined on the non-NLR AIM2 inflammasome by transfecting BMDM with the dsDNS analogue Poly (dA:dT).
The selectivity of compounds 6c and 10 of Formula (III) as inhibitors of NLRP3 was then evaluated with respect to NLRC4 inflammasome. For activation of NLRC4 inflammasome, BMDM were treated with LPS (100 ng/ml) for 3 hours. Subsequently the culture medium was removed and replaced with a serum-free medium containing […] (1 μm for 30 minutes), finally the cells were transfected with flagellin (100 ng/ml) by S. typhimurium for 2 hours. The supernatant was tested by ELISA.

T2 sequence (Q3UP24 whole entry): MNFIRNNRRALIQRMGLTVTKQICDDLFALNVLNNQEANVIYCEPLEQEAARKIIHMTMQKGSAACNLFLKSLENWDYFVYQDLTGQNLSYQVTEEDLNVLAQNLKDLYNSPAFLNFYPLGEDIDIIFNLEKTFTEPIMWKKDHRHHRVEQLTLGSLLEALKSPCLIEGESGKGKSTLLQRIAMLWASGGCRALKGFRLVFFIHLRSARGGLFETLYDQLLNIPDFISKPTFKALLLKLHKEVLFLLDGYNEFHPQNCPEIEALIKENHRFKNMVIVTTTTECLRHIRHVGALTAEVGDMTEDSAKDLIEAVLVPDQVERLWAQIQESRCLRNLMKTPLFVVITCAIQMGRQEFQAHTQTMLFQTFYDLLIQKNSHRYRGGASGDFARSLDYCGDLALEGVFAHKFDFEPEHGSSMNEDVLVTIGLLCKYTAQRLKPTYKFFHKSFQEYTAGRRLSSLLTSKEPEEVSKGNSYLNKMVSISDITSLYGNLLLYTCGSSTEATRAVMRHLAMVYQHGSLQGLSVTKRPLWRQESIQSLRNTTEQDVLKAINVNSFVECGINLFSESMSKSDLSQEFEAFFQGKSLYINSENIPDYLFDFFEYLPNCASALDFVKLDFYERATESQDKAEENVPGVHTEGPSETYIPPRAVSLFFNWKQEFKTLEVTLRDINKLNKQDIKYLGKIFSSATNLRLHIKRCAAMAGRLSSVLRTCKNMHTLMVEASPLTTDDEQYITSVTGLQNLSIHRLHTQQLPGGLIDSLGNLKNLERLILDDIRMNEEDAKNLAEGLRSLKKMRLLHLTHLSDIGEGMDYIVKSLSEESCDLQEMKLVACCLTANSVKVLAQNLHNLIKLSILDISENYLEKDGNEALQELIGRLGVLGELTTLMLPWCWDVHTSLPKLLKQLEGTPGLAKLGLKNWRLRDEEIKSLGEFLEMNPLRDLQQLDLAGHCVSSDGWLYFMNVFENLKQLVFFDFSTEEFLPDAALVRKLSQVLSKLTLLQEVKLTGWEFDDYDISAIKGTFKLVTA

Row | Effect on activation of NLRC4 inflammasome triggered by flagellin S. typhimurium | SMILES
23 | no effect | CC(C)[C@H](NS(=O)(=O)c1ccc([N+](=O)[O-])cc1)C(=O)Nc1c2c(cc3c1CCC3)CCC2 [Compound 6c of Formula (III), (S)—N-(1,2,3,5,6,7-hexahydro-s-indacen-4-yl)-3-methyl-2-((4-nitrophenyl)sulfonamido)butanamide]
24 | no effect | Nc1ccc(S(=O)(=O)N[C@@H](Cc2ccc(O)cc2)C(=O)Nc2c3c(cc4c2CCC4)CCC3)cc1 [Compound 10 of Formula (III), (S)-2-((4-aminophenyl)sulfonamido)-N-(1,2,3,5,6,7-hexahydro-s-indacen-4-yl)-3-(4-hydroxyphenyl)propanamide]

— patent US20250289810A1, “Compounds As NLRP3 Inflammasome Inhibitors And Their Use As Medicaments” (MAM-AGE S.R.L., priority 2022, published 2025)
